Reference: patent publication US7776878B2, “Heterocyclic benzylamino derivatives, their manufacture and use as pharmaceutical agents” (Hoffmann-La Roche Inc., priority 2005, dated 2010)

Key:
[1] = biological target: T1, Upstate Lck (p56^lck, active) (Homo sapiens, UniProt P06239); assay: SRC-Inhibitor-Assay (time-resolved fluorescence), Lck; format: biochemical; conditions: ATP 5 μM, peptide 10 μM, enzyme 2.5 U/mL, 15 min pre-incubation at 15° C.
T1 construct: purchased UBI, Upstate Biotech, Inc
Description: (§1) The activity of the compounds according to this invention as inhibitors for the src-family tyrosine kinases was shown by using the following assay.
(§2) SRC-Inhibitor-Assay Parameters:
(§3) Eu-labelled phosphotyrosine antibody:—for Lck Cisbio Mab PT66-K, • for Src EG&G Wallac PT66 Eu-W1024 (all commercially available).
(§4) Peptides: Ro: NH2-A-E-E-E-I-Y-G-E-F-E-A-K-K-K-K-CONH2, and • Ja133-Ro: Ja133-G-Aminocaprylic acid-A-E-E-E-I-Y-G-E-F-E-A-K-K-K-K-CONH2, wherein Ja133 is LightCycler-Red 640-N-hydroxy succinimide ester; • whereby both peptides were synthesized by an optimized solid phase peptide synthesis protocol (Merrifield, Fed. Proc. Fed. Amer. Soc. Exp. Biol. 21 (1962) 412) on a Zinsser SMP350 peptide synthesizer. Shortly, the peptide was assembled on 160 mg (22.8 μmol scale) of a Rink-Linker modified polystyrene solid phase by repeatedly conjugating an twenty fold excess of amino acids each protected by temporary piperidine labile Fmoc- and permanent acid labile tert-Bu-, BOC- and O-tert-Bu-groups depending on the side chain function. The substrate sequence AEEEIYGEFEAKKKK was N-terminal additionally mounted with the spacer amino acids Aminocaprylic acid and Glycin. After cleavage of the N-terminal temporary protecting group the still attached and protected peptide was labeled with a 1.5 fold amount of LightCycler-Red 640-N-hydroxy succinimide ester (purchased from Roche Diagnostics GmbH) and triethylamine. After 3 hrs. the resin was washed with Dimethylformamide and Isopropanol until the eluates of the blue resin got colourless. […] The substrate was finally isolated by a preparative reverse phase HPLC purification. The purification yielded 12.2 mg RP-HPLC single peak pure blue material (lyophilisate). The identity was proven by MALDI mass spectroscopy [2720.0].
(§5) Enzymes: Upstate Lck (p56^lck, active), Upstate Src (p60^c-src, partially purified) were purchased from UBI, Upstate Biotech, Inc.
(§6) Time-resolved Fluorescence Assay: Reader: Perkin Elmer, Wallac Viktor 1420-040 multilabel counter; Liquid handling system: Beckman Coulter, Biomek 2000.
(§7) ATP, Tween™ 20, 4-(2-hydroxyethyl)-l-piperazineethanesulfonic acid (HEPES) were purchased from Roche Molecular Biochemicals, MgCl2 and MnCl2 were purchased from Merck Eurolab, Tris(2-carboxyethyl)phosphine hydrochloride (TCEP) was purchased from Pierce, 384 Well low volume fluorescence plates was purchased from Falcon.
(§8) At first the enzyme is pre-incubated for 15 min. at 15° C. in aqueous solution with corresponding amounts of inhibitors according to this invention. Then the phosphorylation reaction is started by adding a reaction mixture, containing ATP, Peptide and PT66, and subsequent shaking. The proceeding of this reaction is immediately monitored using time resolved fluorescence spectroscopy in a suitable well plate reader.
(§9) The IC50-values can be obtained from the reaction rates by using a non-linear curve fit (XLfit software (ID Business Solution Ltd., Guilford, Surrey, UK))

[2] = biological target: T2, Upstate Src (p60^c-src, partially purified) (Homo sapiens, UniProt P12931); assay: SRC-Inhibitor-Assay (time-resolved fluorescence), Src; format: biochemical; conditions: ATP 5 μM, peptide 10 μM, enzyme 2.5 U/mL, 15 min pre-incubation at 15° C.
T2 construct: purchased UBI, Upstate Biotech, Inc
Description: as §1, §2, §3, §4, §5, §6, §7, §8, §9

T1 sequence (P06239 whole entry): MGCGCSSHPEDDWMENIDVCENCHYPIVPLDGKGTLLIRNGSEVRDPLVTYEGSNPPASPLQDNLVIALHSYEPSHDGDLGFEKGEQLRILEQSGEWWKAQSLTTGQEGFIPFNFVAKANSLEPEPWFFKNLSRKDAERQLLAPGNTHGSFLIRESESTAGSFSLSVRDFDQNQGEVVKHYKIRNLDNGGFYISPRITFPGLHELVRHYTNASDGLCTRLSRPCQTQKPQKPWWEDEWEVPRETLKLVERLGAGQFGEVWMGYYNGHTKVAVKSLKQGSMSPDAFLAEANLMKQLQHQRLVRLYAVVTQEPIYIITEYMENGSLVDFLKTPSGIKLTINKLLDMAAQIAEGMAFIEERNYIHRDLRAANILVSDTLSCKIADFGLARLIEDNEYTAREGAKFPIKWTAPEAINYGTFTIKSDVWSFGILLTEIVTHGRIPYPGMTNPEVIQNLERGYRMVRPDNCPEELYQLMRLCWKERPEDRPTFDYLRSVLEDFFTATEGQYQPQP
T2 sequence (P12931 whole entry): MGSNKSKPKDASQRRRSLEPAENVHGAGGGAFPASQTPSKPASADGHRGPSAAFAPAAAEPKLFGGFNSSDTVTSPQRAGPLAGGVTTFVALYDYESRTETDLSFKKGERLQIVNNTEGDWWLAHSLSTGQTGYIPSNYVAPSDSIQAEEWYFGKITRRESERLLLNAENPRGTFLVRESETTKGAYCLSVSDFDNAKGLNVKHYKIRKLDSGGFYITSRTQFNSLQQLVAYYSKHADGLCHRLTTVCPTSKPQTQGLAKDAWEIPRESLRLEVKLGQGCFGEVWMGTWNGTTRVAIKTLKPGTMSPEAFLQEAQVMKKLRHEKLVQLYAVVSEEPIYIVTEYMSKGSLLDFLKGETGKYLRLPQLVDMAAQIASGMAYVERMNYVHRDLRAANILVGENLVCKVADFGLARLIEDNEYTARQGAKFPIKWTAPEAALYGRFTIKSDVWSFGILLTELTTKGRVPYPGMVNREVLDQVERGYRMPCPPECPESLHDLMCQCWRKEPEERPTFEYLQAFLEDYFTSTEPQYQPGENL

| Compound | IC50 [1] [nM] | IC50 [2] [nM] |
| --- | --- | --- |
| Cc1ccccc1CNc1cnc2[nH]c(-c3ccccc3)cc2c1 [Example 2-4, (2-Methyl-benzyl)-(2-phenyl-1H-pyrrolo[2,3-b]pyridin-5-yl)-amine] | 100 to 1000 | 10 to 500 |
| c1ccc(CNc2cnc3[nH]c(-c4ccccc4)cc3c2)cc1 [Example 2-3, Benzyl-(2-phenyl-1H-pyrrolo[2,3-b]pyridin-5-yl)-amine] | 1000 to 5000 | 10 to 500 |
| COCCOc1cccc(-c2cc3cc(NCc4ccccc4)cnc3[nH]2)c1 [Example 2-1, Benzyl-{2-[3-(2-methoxy-ethoxy)-phenyl]-1H-pyrrolo[2,3-b]pyridin-5-yl}-amine] | 100 to 1000 | 500 to 1500 |
| CC(=O)Nc1cccc(-c2cc3cc(NCc4ccccc4C)cnc3[nH]2)c1 [Example 2-6, N-{3-[5-(2-Methyl-benzylamino)-1H-pyrrolo[2,3-b]pyridin-2-yl]-phenyl}-acetamide] | 223 | 31 |
| COCCOc1cccc(-c2cc3cc(NCc4ccccc4C)cnc3[nH]2)c1 [Example 2-2, {2-[3-(2-Methoxy-ethoxy)-phenyl]-1H-pyrrolo[2,3-b]pyridin-5-yl}-(2-methyl-benzyl)-amine] | 757 | 131 |

Second part, the compound after the results:

| IC50 [1] [nM] | IC50 [2] [nM] | Compound |
| --- | --- | --- |
| 1000 to 5000 | 500 to 1500 | CC(Nc1cnc2[nH]c(-c3ccccc3)nc2c1)c1ccccc1 (stereo not drawn) [Example 1-1, (1-Phenyl-ethyl)-(2-phenyl-3H-imidazo[4,5-b]pyridin-6-yl)-amine] |
| 100 to 1000 | 10 to 500 | CC(=O)Nc1cccc(-c2cc3cc(NCc4ccccc4)cnc3[nH]2)c1 [Example 2-5, N-[3-(5-Benzylamino-1H-pyrrolo[2,3-b]pyridin-2-yl)-phenyl]-acetamide] |
| 100 to 1000 | 10 to 500 | CC(=O)Nc1ccc(-c2cc3cc(NCc4ccccc4)cnc3[nH]2)cc1 [Example 2-7, N-[4-(5-Benzylamino-1H-pyrrolo[2,3-b]pyridin-2-yl)-phenyl]-acetamide] |
| 100 to 1000 | 10 to 500 | CC(=O)Nc1ccc(-c2cc3cc(NCc4ccccc4C)cnc3[nH]2)cc1 [Example 2-8, N-{4-[5-(2-Methyl-benzylamino)-1H-pyrrolo[2,3-b]pyridin-2-yl]-phenyl}-acetamide] |
